Laboratory results published in US4942154A, “Steroidal glycolipids as host resistance stimulators against viral infection” (priority 1987, dated 1990).

What was measured:
[1] = system: Pseudomonas aeruginosa; experiment: Pseudomonas aeruginosa in vivo protection study in cyclophosphamide-treated mice; parameters: species or system CF1 female mice; details: for LD50 Actual: PA, CY +
Method: (§1) Groups of 15-20 CF1 female mice (Charles River Breeding, Cambridge, Mass.) weighing 22-28 gm were injected intraperitoneally (i.p.) with cyclophosphamide (Cytoxan; CY) at 250 mg per kg body weight. One to two hours later they were typically injected again with the test material by the route specified. Four days later, the mice were divided into groups of five, each of which were injected i.p. with a different dilution of a suspension of Pseudomonas aeruginosa (Immunotype 1). The number of survivors was determined periodically and an estimate was made of the number of CFU of Pseudomonas organisms necessary to cause 50% lethality by the cumulative method of L. J. Reed and H. Muench (Am. J. Hygiene 27 (1938) 493-497). A protective index (P.I.) was defined as the LD50 for the mice receiving cyclophosphamide and the test compound divided by the LD50 for the mice receiving cyclophosphamide alone. All control mice were injected with aqueous vehicle in the same route and schedule as the test animals.
(§2) MATERIALS. All compounds for dosing were suspended in a sterile medium referred to as "aqueous vehicle" which contains 0.9% sodium chloride, 0.5% carboxymethyl cellulose, 0.4% Tween 80, and 0.9% benzyl alcohol unless otherwise stated. Test materials were evaluated via subcutaneous (s.c.), i.p., intramuscular (i.m.), orally (p.o.). and intravenous (i.v.) routes of administration. […]
(§3) INFECTION OF ANIMALS. All bacteria were inoculated i.p. to induce infection in the in vivo experiments. Candida albicans, however, was administrated i.v. Bacteria cultures were harvested in the log phase, washed with phosphate buffered saline (PBS, and resuspended in PBS containing 10% glycerol for freezing at -70° C. in 1 ml aliquots. The number of […] (cfu's) was determined before and after freezing. Frozen cultures were routinely thawed and diluted in sterile PBS just prior to inoculation. Viable cell counts were routinely done on thawed cultures the day of challenge to determine the number of cfu's. Candida albicans was stored in distilled water at room temperature. Viable cell counts were determined the day of testing.
(§4) The testing and results of 6-(5-cholesten-3β-yloxy)hexyl-1-thio-β-D-mannopyranoside (Example 2) against various organisms is shown in Table 2.

[2] = system: Mycobacterium aviumintracellulare; details: AIDS patients; cited from earlier work
[3] = system: AIDS / AIDS-related complex (ARC); details: human, in vivo; cited from earlier work
[4] = in vivo; cited from earlier work
[5] = cited from earlier work; for adverse effects, toxicity, tolerability: clinical
[6] = system: HIV; details: cited from earlier work
[7] = system: Staphylococcus aureus; experiment: In vivo protection from Staphylococcus aureus infection in cyclophosphamide-treated mice; parameters: species or system CF1 female mice; details: SA, CY +
Method: as §1
MATERIALS. All compounds for dosing were suspended in a sterile medium referred to as "aqueous vehicle" which contains 0.9% sodium chloride, 0.5% carboxymethyl cellulose, 0.4% Tween 80, and 0.9% benzyl alcohol unless otherwise stated. Test materials were evaluated via subcutaneous (s.c.), i.p., intramuscular (i.m.), orally (p.o.). and intravenous (i.v.) routes of administration. The initial test dose was 40 mg per kg per mouse, with each active compound subsequently titrated below this level.
as §3, §4

[8] = system: Herpes Simplex Virus-1 (HSV1); experiment: Antiviral experiment in mice infected IP with Herpes Simplex Virus-1; format: in vivo, ICR mice; details: for Average Day of Death, Pre Treatment: HSV1 day 5; for Average Day of Death, Post Treatment: HSV1 prior to treatment
Method: An antiviral experiment was conducted to compare treatment with 6-(5-Cholesten-3β-yloxy)hexyl 1-thio-β-D-mannopyranoside (Example 2) in mice infected IP with Herpes Simplex Virus-1 (HSV1) immediately before (post treatment) or after 5 days of treatment (pretreatment).
Ten mice (ICR, 20 gm, mixed sexes) were pretreated by SC injection of a 0.1 mL suspension of test compound twice a day for 4 days. On day 5, the mice were injected IP with 0.5 mL solution of HSV1 (Schloser, 10-5). The post treatment group was infected with HSV1 prior to administration of test compound. Day of death from time of infection with HSV1 was recorded for each mouse and average day of death per treatment group was calculated.

[9] = system: Candida albicans; experiment: In vivo protection from Candida albicans infection in cyclophosphamide-treated mice; parameters: species or system CF1 female mice; details: CA, CY +
Method: as §1, §2
as §3, with “All bacteria were inoculated i.p. to induce infection in the in vivo experiments.” left out, “testing. […]” for “testing.”

[10] = system: Klebsiella pheumoniae; experiment: In vivo protection from Klebsiella infection in cyclophosphamide-treated mice; parameters: species or system CF1 female mice; details: KP; CY +; 40 mg/kg
Method: as §1, §2

[11] = system: HIV reverse transcriptase; details: cited from earlier work
[12] = system: reverse transcriptase in several retroviruses; details: in vitro; cited from earlier work
[13] = system: AIDS-related Kaposi's sarcoma; details: cited from earlier work

## 6-(20S-Amino-pregn-5-en-3β-yloxy)hexyl 1-thio-β-D-mannopyranoside [Example 14]
[1]; Table 3, Pseudomonas aeruginosa, cyclophosphamide-treated mice, dose not given
  Protective Index (log): 4.37 log

## CO[C@H]1/C=C/O[C@@]2(C)Oc3c(C)c(O)c4c(c3C2=O)C2=NC3(CCN(CC(C)C)CC3)NC2=C(NC(=O)/C(C)=C\C=C\[C@H](C)[C@H](O)[C@@H](C)[C@@H](O)[C@@H](C)[C@H](OC(C)=O)[C@@H]1C)C4=O [Ansamycin, rifabutin]
[2]
  efficacy in opportunistic infection: some efficacy

## Cc1cn([C@H]2C[C@H](N=[N+]=[N-])[C@@H](CO)O2)c(=O)[nH]c1=O [Azidothymidine, 3'-azido-3'-deoxythymidine]
[3]
  clinical effect in AIDS / ARC patients: First drug to show promise in prolonging lives of patients with AIDS or AIDS-related complex (ARC)
[4]
  central nervous system penetration: effectively penetrates central nervous system

## CC(C)(N1CC1C#N)N1CC1C(N)=O (stereo not shown) [Azimexon]
[3]
  clinical effect in AIDS / ARC patients: improvements in symptoms and immune function in patients with ARC but not AIDS
[5]
  adverse effects, toxicity, tolerability: only toxic effect was mild hemolysis

## CC(C)(S)[C@@H](N)C(=O)O [D-Penicillamine, 3-mercapto-D-valine]
[3]
  clinical effect in AIDS / ARC patients: suppressed the virus
[6]
  effect on HIV infectivity, growth or reproduction: Inhibits HIV reproduction in humans
[5]; 13 AIDS patients with perpetually swollen glands
  T cell levels: temporarily depressed T cell levels

## CC(C)CCC[C@@H](C)[C@H]1CC[C@H]2[C@@H]3CC=C4C[C@@H](OCCCCCCS[C@@H]5O[C@H](CO)[C@@H](O)[C@H](O)[C@@H]5O)CC[C@]4(C)[C@H]3CC[C@]12C [Example 2, 6-(5-Cholesten-3β-yloxy)hexyl 1-thio-β-D-mannopyranoside]
[7]; 5 mg/kg
  LD50 Actual: 3.38 × 10^5 CFU
[7]; 10 mg/kg
  LD50 Actual: 1.04 × 10^6 CFU
[7]; 20 mg/kg
  LD50 Actual: 2.38 × 10^6 CFU
[7]; 40 mg/kg
  LD50 Actual: 1.58 × 10^7 CFU
[1]; 10 mg/kg
  LD50 Actual: 3.2 × 10^4 CFU
[1]; 20 mg/kg
  LD50 Actual: 3.2 × 10^5 CFU
[1]; 40 mg/kg
  LD50 Actual: 1.22 × 10^6 CFU
[1]; 80 mg/kg
  LD50 Actual: 2.59 × 10^6 CFU
[8]; 0.8 mg/kg SC twice a day for 4 days, P 0.797
  Average Day of Death, Pre Treatment: 8.6 days
[8]; 0.8 mg/kg SC twice a day
  Average Day of Death, Post Treatment: 9.1 days
[8]; 3.1 mg/kg SC twice a day for 4 days, P 0.348
  Average Day of Death, Pre Treatment: 7.1 days
[8]; 3.1 mg/kg SC twice a day
  Average Day of Death, Post Treatment: 6.3 days
[8]; 12.5 mg/kg SC twice a day for 4 days, P 0.725
  Average Day of Death, Pre Treatment: 8.0 days
[8]; 12.5 mg/kg SC twice a day
  Average Day of Death, Post Treatment: 7.5 days
[8]; 50 mg/kg SC twice a day for 4 days, P 0.003
  Average Day of Death, Pre Treatment: 11.0 days
[8]; 50 mg/kg SC twice a day
  Average Day of Death, Post Treatment: 6.4 days
[8]; 50 mg/kg twice a day for four days, by day of death
  protection from fatal viral infection over placebo: statistically enhanced protection from fatal viral infection over placebo treated animals
[8]; pretreated mice versus post treatment group
  protection, pretreated over post treatment group: statistically enhanced protection over the post treatment group
[9]; 10 mg/kg
  LD50 Actual: 3.68 × 10^4 CFU
[9]; 20 mg/kg
  LD50 Actual: 5.2 × 10^4 CFU
[9]; 40 mg/kg
  LD50 Actual: 7.88 × 10^4 CFU
[10]
  LD50 Actual: 4.73 × 10^7 CFU
  P.I. (log): 1.12 log

## O=C(O)P(=O)(O)O [Foscarnet, trisodium phosphonoformate]
[11]
  HIV reverse transcriptase inhibition: Inhibits HIV reverse transcriptase activity in vitro at levels pharmacologically acceptable in vivo
[5]
  adverse effects, toxicity, tolerability: serious side effects

## CC(=O)Nc1ccc(C(=O)O)cc1.CC(=O)Nc1ccc(C(=O)O)cc1.CC(=O)Nc1ccc(C(=O)O)cc1.CC(O)CN(C)C.CC(O)CN(C)C.CC(O)CN(C)C.O=c1[nH]cnc2c1ncn2[C@@H]1O[C@H](CO)[C@@H](O)[C@H]1O [Inosine pranobex, p-Acetamidobenzoic acid salt of (1-dimethylamino-2-propanol:inosinate complex 3:3:1 molar ratio)]
[3]
  clinical effect in AIDS / ARC patients: improve immune function in ARC patients

## NC(=O)c1ncn([C@@H]2O[C@H](CO)[C@@H](O)[C@H]2O)n1 [Ribavirin, 1-β-D-ribofuranosyl-1,2,4-triazole-3-carboxamide]
[3]
  clinical effect in AIDS / ARC patients: inhibited viral replication and improved immune function in AIDS patients

## Cc1ccc(C(=O)Nc2ccc(S(=O)(=O)O)c3cc(S(=O)(=O)O)cc(S(=O)(=O)O)c23)cc1NC(=O)c1cccc(NC(=O)Nc2cccc(C(=O)Nc3cc(C(=O)Nc4ccc(S(=O)(=O)O)c5cc(S(=O)(=O)O)cc(S(=O)(=O)O)c45)ccc3C)c2)c1 [Suramin]
[3]
  clinical effect in AIDS / ARC patients: little or no evidence of clinical improvement or immunologic recovery
[11]
  HIV reverse transcriptase inhibition: Potent inhibitor of HIV reverse transcriptase

## ammonium 21-tungsto-9-antimoniate [HPA-23]
[3]
  clinical effect in AIDS / ARC patients: no therapeutic benefit has been documented in AIDS patients
[12]
  reverse transcriptase inhibition in retroviruses: Inhibits reverse transcriptase in several retroviruses in vitro
[6]
  effect on HIV infectivity, growth or reproduction: some tendency to check the growth of HIV

## α-Interferon
[6]
  effect on HIV infectivity, growth or reproduction: Checks the growth of HIV in vitro
[13]
  tumor regression: induced tumor regression in some AIDS-related Kaposi's sarcoma cases
